# Data: patent US20200010814A1, “NOVEL MONOOXYGENASE AND UTILIZATION THEREOF” (KANEKA CORPORATION, priority 2017, published 2020)
# System: pQAH1/pRAT1 Rhodococcus erythropolis L88
# Experiment: Evaluation of substrate specificity
# Assay type: cell-based
# Details: 10 mM substrate, 5% glucose, 26 hours of reaction; NMR and optical rotation analyses
# Procedure: pQAH1/pRAT1 Rhodococcus erythropolis L88 was cultured in an LB medium by a method similar to that for Example 5. Expression of a protein was induced with 0.2 μg/ml of thiostrepton, and then 10 mM of each of L-isovaline, D-isovaline, L-aminobutyrate, and D-aminobutyrate was added together with 5% glucose. After 26 hours of reaction, the reaction supernatant was analyzed by the LCMS analysis method used for Example 1.
row,SMILES,product of the hydroxylation reaction of the substrate
1,CC[C@@H](N)C(=O)O [D-aminobutyrate],D-allo-threonine
2,CC[C@@](C)(N)C(=O)O [D-isovaline],"(2R,3R)-2-methyl threonine"
3,CC[C@H](N)C(=O)O [L-aminobutyrate],L-allo-threonine
4,CC[C@](C)(N)C(=O)O [L-isovaline],"(2S,3S)-2-methyl threonine"
